Converted amounts (≈) assume the structure as drawn.
Tests used:
[1] = system: A. baumannii ATCC BAA-1800; experiment: MIC 90, resistant ATCC strains of the ESKAPE panel; format: cell-based; settings: Acinetobacter baumannii, ATCCBAA1800, MDR
From the text: (§1) 3.3 Protocol for MIC Determination (ATCC Strains)
(§2) Tested reference compounds. Amikacin sulfate (Cat. No. 01693, Chem-Impex), Gentamicin sulfate (Cat. No. G4918, Sigma Aldrich), Azithromycin (Cat. No. 1046056, USP), Ceftazidime Pentahydrate (Cat. No. 1098130, USP), Ciprofloxacin (Cat. No. 1134313, USP), Meropenem (Cat. No. 1392454, USP), Rifampicin (Cat. No. R0079, TCI), Tobramycin (Cat. No. 1667508, USP), Vancomycin (Cat. No. 1709007 USP).
(§3) Microbial strains. Staphylococcus aureus ATCC 29213, Staphylococcus aureus ATCC BAA-1717, Escherichia coli ATCC BAA-1025, Klebsiella pneumoniae ATCC BAA-1705, Klebsiella pneumoniae ATCC BAA-2524, Pseudomonas aeruginosa ATCC 27853, Pseudomonas aeruginosa ATCC BAA-2108, Acinetobacter baumannii ATCC BAA-1800.
(§4) Culture media and equipment. BBL™ Mueller Hinton Broth (REF 275730, Lot. 7009699, Becton Dickinson), Mueller Hinton Agar 2 (Ref. No. 97580-500G-F, Lot. No. BCBV4646, Sigma), Dulbecco's Modified Eagle's Medium (DMEM) (Cat. No. 41966-029, Gibco), Minimum Essential Medium (MEM) (Cat. No. 42360-024, Gibco), Fetal bovine serum (FBS) (Cat. No. F7524, Sigma), Non-essential amino acids (NEAA) (100×, Cat. No. 11140-035, Gibco), Sodium Pyruvate (100 mM, 100×, Cat. No. 11360-039, Gibco), Staurosporine (Cat. No. B50188, Biotrend), Cellstar 96-well plates U-bottom (Cat. No. 650180, Lot. No. E14123EB, Greiner Bio-one), CellTiter-Glo (Cat. No. G7573, Promega), 96-well plate V-bottom (Cat. No. 651201, Greiner), 96-well clear plate, U-bottom, (Cat. No. 650180, Greiner), 96-well white plate with clear bottom (Cat. No. 655098, Greiner), 96-well deep well plate 1 mL (Cat. No. 278606, Nunc), Sodium Pyruvate (100 mM, 100×, Gibco, Cat #11360-039), Incubator (Binder), Laminar flow (Thermo Scientific), BioPhotometer (Eppendorf); DEN-1B (McFarland Densitometer, Biosan); McFarland standards (polymer microparticle suspension, Biosan).
(§5) Compound preparation. The test compounds and reference antibiotics were prepared according to CLSI guidelines (Clinical and Laboratory Standards Institute (CLSI); Methods for dilution antimicrobial susceptibility tests for bacteria that grow aerobically; approved standard—ninth edition, M07-A9, Vol. 32, No. 2, 2012) as 5 mg/mL stock solutions in DMSO. Out of these DMSO solutions, 43.5 μL was transferred to 1656.5 μL of MH media in a deep well plate. Out of these working solutions 100 μL was transferred to wells in the third column of 96-well plates. Plates were previously filled with 50 μL of MH media in all wells except for the wells in the third column. After compound and antibiotic addition, 50 μL was transferred from the third to the fourth column, then from the fourth to the fifth and so on. In this manner, the compounds and antibiotics were plated in 96-well plate in serial two-fold dilutions giving a final concentration range of 64-0.125 μg/mL.
(§6) Preparation of microorganisms. Designations used for clinical isolates were from the Fidelta strain collection bank. Microorganisms used were all revived from skim milk storage at −70° C. by plating them on MH agar plates. The following day the single colony of each microorganism was again streaked on fresh agar plates. The next day, using the direct colony suspension method, broth solutions that achieve turbidity equivalent to 0.5 McFarland standard for each microorganism were prepared. […] Out of these suspensions, actual inoculums were prepared by diluting them 100× with MH media giving a final microorganism count of 2-8×10^5 CFU/mL. For each strain of microorganisms, 20 mL of these inoculum solutions were prepared. From the second to the twelfth column of 96-well plates, 50 μL of these solutions were transferred per well. To the first column, 50 μL per well of pure growth media was added. In this manner the first column was used as sterility control of media, the second column was used as control of microorganism's growth and the rest of the plate was used for MIC determination. All plates were incubated for 16-24 h at 37° C. […]

S. aureus ATCC BAA-1717 = experiment: MIC 90, resistant ATCC strains of the ESKAPE panel; format: cell-based; settings: Staphylococcus aureus, MRSA
From the text: as §1, §2, §3, §4, §5, §6

[2] = system: K. pneumoniae ATCC BAA-1705; experiment: MIC 90, resistant ATCC strains of the ESKAPE panel; format: cell-based; settings: Klebsiella pneumoniae, ATCCBAA1705, KPC
From the text: as §1, §2, §3, §4, §5, §6

[3] = system: K. pneumoniae ATCC BAA-2524; experiment: MIC 90, resistant ATCC strains of the ESKAPE panel; format: cell-based; settings: Klebsiella pneumoniae, ATCCBAA2524, OXA-48
From the text: as §1, §2, §3, §4, §5, §6

[4] = system: P. aeruginosa ATCC BAA-2108; experiment: MIC 90, resistant ATCC strains of the ESKAPE panel; format: cell-based; settings: Pseudomonas aeruginosa, ATCCBAA2108, MDR
From the text: as §1, §2, §3, §4, §5, §6

P. aeruginosa ATCC 27853 = experiment: MIC 90, broth micro-dilution, ATCC strains; format: cell-based, Pseudomonas aeruginosa; settings: Pseudomonas aeruginosa, ATCC27853, read-out: MIC 90
From the text: as §1, §2, §3, §4, §5, §6

S. aureus ATCC 29213 = experiment: MIC 90, broth micro-dilution, ATCC strains; format: cell-based, Staphylococcus aureus; settings: Staphylococcus aureus, ATCC29213, read-out: MIC 90
From the text: as §1, §2, §3, §4, §5, §6

[5] = system: E. coli ATCC BAA-1025 (= BL 21); experiment: MIC 90, broth micro-dilution, ATCC strains; format: cell-based, Escherichia coli; settings: Escherichia coli, ATCCBAA1025, read-out: MIC 90
From the text: as §1, §2, §3, §4, §5, §6

SMILES | MIC90 [1] [µg/mL] | MIC90 (S. aureus ATCC BAA-1717) [µg/mL] | MIC90 [2] [µg/mL] | MIC90 [3] [µg/mL] | MIC90 [4] [µg/mL] | MIC90 (P. aeruginosa ATCC 27853) [µM] | MIC90 (S. aureus ATCC 29213) [µM] | MIC90 [5] [µM]
N=C(NCCO)NC1[C@@H](O)C(OC2[C@@H](F)[C@H](O[C@H]3OC(CN)[C@@H](O)CC3N)C(N)C[C@H]2NC(=O)[C@@H](O)CCN)O[C@H](CO)[C@H]1O (some centres unmarked) [ABX5029, Tobra-AHB-F-Gua 2-hydroxy-ethyl] | 16 (≈ 24.4 µM) | 0.5 (≈ 0.761 µM) | 4 (≈ 6.09 µM) | 0.25 (≈ 0.381 µM) | 4 (≈ 6.09 µM) | – | – | –
NCC[C@H](O)C(=O)N[C@@H]1C[C@H](N)[C@@H](O[C@H]2O[C@H](CN)[C@@H](O)[C@H](O)[C@H]2O)[C@H](O)[C@H]1O[C@H]1O[C@H](CO)[C@@H](O)[C@H](N)[C@H]1O [Amikacin, amikacin, reference compound] | 64 (≈ 109 µM) | 4 (≈ 6.83 µM) | 32 (≈ 54.6 µM) | 0.5 (≈ 0.854 µM) | 16 (≈ 27.3 µM) | 1 (≈ 0.586 µg/mL) | 4 (≈ 2.34 µg/mL) | 2 (≈ 1.17 µg/mL)
N=C(NC[C@@H]1CCNC1)NC1[C@@H](O)C(OC2[C@@H](F)[C@H](O[C@H]3OC(CN)[C@@H](O)CC3N)C(N)C[C@H]2NC(=O)[C@@H](O)CCN)O[C@H](CO)[C@H]1O (stereo partly drawn) [ABX5039, Tobra-AHB-F-Gua (R) pyrrolidine-3-ylmethyl] | 16 (≈ 23 µM) | 0.5 (≈ 0.719 µM) | 4 (≈ 5.75 µM) | 0.5 (≈ 0.719 µM) | 8 (≈ 11.5 µM) | – | – | –
N=C(NC[C@@H]1CCCN1)NC1[C@@H](O)C(OC2[C@@H](F)[C@H](O[C@H]3OC(CN)[C@@H](O)CC3N)C(N)C[C@H]2NC(=O)[C@@H](O)CCN)O[C@H](CO)[C@H]1O (stereo partly drawn) [ABX5026, Tobra-AHB-F-Gua (S) pyrrolidine-2-yl-methyl] | 32 (≈ 46 µM) | 0.5 (≈ 0.719 µM) | 4 (≈ 5.75 µM) | 0.5 (≈ 0.719 µM) | 8 (≈ 11.5 µM) | 1 (≈ 0.696 µg/mL) | 0.5 (≈ 0.348 µg/mL) | 1 (≈ 0.696 µg/mL)
CNCCNC(=N)NC1[C@@H](O)C(OC2[C@@H](F)[C@H](O[C@H]3OC(CN)[C@@H](O)CC3N)C(N)C[C@H]2NC(=O)[C@@H](O)CCN)O[C@H](CO)[C@H]1O (some centres unmarked) [ABX5038, Tobra-AHB-F-Gua 2-(methylamino)ethyl] | 32 (≈ 47.8 µM) | 0.5 (≈ 0.747 µM) | 8 (≈ 11.9 µM) | 0.5 (≈ 0.747 µM) | 4 (≈ 5.97 µM) | – | – | –
N=C(N)NC1[C@@H](O)C(OC2[C@@H](F)[C@H](O[C@H]3OC(CN)[C@@H](O)[C@H](O)C3N)C(N)C[C@H]2NC(=O)[C@@H](O)CCN)O[C@H](CO)[C@H]1O (some centres unmarked) [ABX4006, KanaB-AHB-F-Gua] | 16 (≈ 25.5 µM) | 4 (≈ 6.36 µM) | 2 (≈ 3.18 µM) | < 0.125 | 16 (≈ 25.5 µM) | – | – | –
N=C(NC[C@@H]1CNCCO1)NC1[C@@H](O)C(OC2[C@@H](F)[C@H](O[C@H]3OC(CN)[C@@H](O)CC3N)C(N)C[C@H]2NC(=O)[C@@H](O)CCN)O[C@H](CO)[C@H]1O (stereo partly drawn) [ABX5040, Tobra-AHB-F-Gua (S) morpholin-2-yl methyl] | 32 (≈ 45 µM) | 0.5 (≈ 0.702 µM) | 8 (≈ 11.2 µM) | 0.5 (≈ 0.702 µM) | 8 (≈ 11.2 µM) | – | – | –
N=C(N)NC1C(O)[C@@H](CO)OC(OC2C(F)[C@H](O[C@H]3OC(CN)[C@@H](O)CC3N)C(N)C[C@H]2NC(=O)[C@@H](O)CCN)[C@@H]1O (some centres unmarked) [ABX5006, Tobra-AHB-F-Gua] | 16 (≈ 26.1 µM) | 0.5 (≈ 0.816 µM) | 2 (≈ 3.26 µM) | < 0.125 | 4 (≈ 6.53 µM) | 0.25 (≈ 0.153 µg/mL) | 0.5 (≈ 0.306 µg/mL) | 0.5 (≈ 0.306 µg/mL)
N=C(NCCN)NC1C(O)[C@@H](CO)OC(OC2C(F)[C@H](O[C@H]3OC(CN)[C@@H](O)CC3N)C(N)C[C@H]2NC(=O)[C@@H](O)CCN)[C@@H]1O (some centres unmarked) [ABX5020, Tobra-AHB-F-Gua-2-amino-ethyl] | 32 (≈ 48.8 µM) | 0.25 (≈ 0.381 µM) | 8 (≈ 12.2 µM) | 0.5 (≈ 0.763 µM) | 2 (≈ 3.05 µM) | 0.25 (≈ 0.164 µg/mL) | 0.25 (≈ 0.164 µg/mL) | 1 (≈ 0.656 µg/mL)
N=C(NC[C@H]1CCNC1)NC1[C@@H](O)C(OC2[C@@H](F)[C@H](O[C@H]3OC(CN)[C@@H](O)CC3N)C(N)C[C@H]2NC(=O)[C@@H](O)CCN)O[C@H](CO)[C@H]1O (stereo partly drawn) [ABX5042, Tobra-AHB-F-Gua (S) pyrrolidine-3-ylmethyl] | 32 (≈ 46 µM) | 0.5 (≈ 0.719 µM) | 4 (≈ 5.75 µM) | 0.5 (≈ 0.719 µM) | 8 (≈ 11.5 µM) | – | – | –
